Patent US20230365559A1, “NOVEL AMINOPYRIDINES AND THEIR USE IN TREATING CANCER” (priority 2020, published 2023)
Where “and” joins values, the source holds several entries; their conditions need not be identical. Identical values can stand only once. Entries after “also recorded” stand apart in the source; their conditions may differ. Like-named read-outs stand apart in the source and are kept apart here. Each block holds one compound with its values, some of them ahead of it.

What was measured:
[1] = biological target: ATM (Homo sapiens, UniProt Q13315); assay: ATM Human PIKK Kinase Enzymatic ELISA/EIA Assay, KinaseProfiler (Eurofins Discovery); type: biochemical; conditions: for remaining activity at 1 µM: read-out: ATM, Percent of control at 1 μM; for IC50: KinaseProfiler, Km ATP, Table 15, read-out: Inhibition of PIKK kinase activity ATM
[2] = system: HAP1 cells; assay: Radiosensitisation of HAP1 wild type cells, regrowth assay; type: cell-based, human; conditions: for IC50: Homo sapiens, HAP1, read-out: HAP1 wt IC50; for effect in unirradiated HAP1 cells: 0 Gy; for radiosensitisation / differential growth inhibition of HAP1 cells: 3 Gy cobalt-60 gamma irradiation relative to radiation-only
[3] = biological target: human DNA-PK (Homo sapiens, UniProt P78527); assay: Inhibition of DNA-PKcs kinase activity, HotSpot assay (Reaction Biology), [γ-33P]-ATP phosphorylation of peptide substrate; type: biochemical
[4] = system: UT-SCC-54C cells; assay: Radiosensitisation of UT-SCC-54C HNSCC cells, regrowth (sulforhodamine B) assay, oxic (Table 16); type: cell-based, human; conditions: for IC50: Homo sapiens, read-out: IC50; for S50: compound in combination with 3 Gy of radiation, 50% inhibition of regrowth fraction, UT-SCC-54C, oxic
[5] = system: HAP1/PRKDC−/− cells; assay: Radiosensitisation of DNA-PK null HAP1/PRKDC−/− cells, regrowth assay; type: cell-based, human; conditions: for IC50: Homo sapiens, HAP1; for radiosensitisation / differential growth inhibition of DNA-PK null HAP1 line: 3 Gy, HAP1/PRKDC−/−
[6] = biological target: human PI3Kα (p110α/p85α) (Homo sapiens, UniProt P42336); assay: Inhibition of PI3Kα kinase activity, ADP-Glo Assay (Reaction Biology); type: biochemical; conditions: 10 μM ATP; mean of two replicates; Table 12; read-out: Inhibition of kinase activity (as IC50) PICK
[7] = biological target: human mTOR (Homo sapiens, UniProt P42345); assay: Inhibition of mTOR kinase activity, HotSpot assay, phosphorylation of 4EPB1
[8] = system: UT-SCC-54C cells; assay: Radiosensitisation of UT-SCC-54C HNSCC cells, clonogenic survival, oxic and anoxic (Table 18); type: cell-based, human; conditions: for Plating efficiency drug/no drug: no radiation
[9] = 10 μM ATP, 10 μg/ml DNA, mean of two replicates, Table 12, read-out: Inhibition of kinase activity (as IC50) DNA-PK (converted)
[10] = Inhibition of kinase activity (as IC50) mTOR (nM), 10 μM ATP, mean of two replicates, Table 12
[11] = HotSpot assay Reaction Biology Corp., Table 15, read-out: Inhibition of PIKK kinase activity DNA-PK
[12] = Inhibition of PIKK kinase activity mTOR/FRAP (nM), HotSpot assay Reaction Biology Corp., Table 15

Chain of ATM (Q13315 whole entry): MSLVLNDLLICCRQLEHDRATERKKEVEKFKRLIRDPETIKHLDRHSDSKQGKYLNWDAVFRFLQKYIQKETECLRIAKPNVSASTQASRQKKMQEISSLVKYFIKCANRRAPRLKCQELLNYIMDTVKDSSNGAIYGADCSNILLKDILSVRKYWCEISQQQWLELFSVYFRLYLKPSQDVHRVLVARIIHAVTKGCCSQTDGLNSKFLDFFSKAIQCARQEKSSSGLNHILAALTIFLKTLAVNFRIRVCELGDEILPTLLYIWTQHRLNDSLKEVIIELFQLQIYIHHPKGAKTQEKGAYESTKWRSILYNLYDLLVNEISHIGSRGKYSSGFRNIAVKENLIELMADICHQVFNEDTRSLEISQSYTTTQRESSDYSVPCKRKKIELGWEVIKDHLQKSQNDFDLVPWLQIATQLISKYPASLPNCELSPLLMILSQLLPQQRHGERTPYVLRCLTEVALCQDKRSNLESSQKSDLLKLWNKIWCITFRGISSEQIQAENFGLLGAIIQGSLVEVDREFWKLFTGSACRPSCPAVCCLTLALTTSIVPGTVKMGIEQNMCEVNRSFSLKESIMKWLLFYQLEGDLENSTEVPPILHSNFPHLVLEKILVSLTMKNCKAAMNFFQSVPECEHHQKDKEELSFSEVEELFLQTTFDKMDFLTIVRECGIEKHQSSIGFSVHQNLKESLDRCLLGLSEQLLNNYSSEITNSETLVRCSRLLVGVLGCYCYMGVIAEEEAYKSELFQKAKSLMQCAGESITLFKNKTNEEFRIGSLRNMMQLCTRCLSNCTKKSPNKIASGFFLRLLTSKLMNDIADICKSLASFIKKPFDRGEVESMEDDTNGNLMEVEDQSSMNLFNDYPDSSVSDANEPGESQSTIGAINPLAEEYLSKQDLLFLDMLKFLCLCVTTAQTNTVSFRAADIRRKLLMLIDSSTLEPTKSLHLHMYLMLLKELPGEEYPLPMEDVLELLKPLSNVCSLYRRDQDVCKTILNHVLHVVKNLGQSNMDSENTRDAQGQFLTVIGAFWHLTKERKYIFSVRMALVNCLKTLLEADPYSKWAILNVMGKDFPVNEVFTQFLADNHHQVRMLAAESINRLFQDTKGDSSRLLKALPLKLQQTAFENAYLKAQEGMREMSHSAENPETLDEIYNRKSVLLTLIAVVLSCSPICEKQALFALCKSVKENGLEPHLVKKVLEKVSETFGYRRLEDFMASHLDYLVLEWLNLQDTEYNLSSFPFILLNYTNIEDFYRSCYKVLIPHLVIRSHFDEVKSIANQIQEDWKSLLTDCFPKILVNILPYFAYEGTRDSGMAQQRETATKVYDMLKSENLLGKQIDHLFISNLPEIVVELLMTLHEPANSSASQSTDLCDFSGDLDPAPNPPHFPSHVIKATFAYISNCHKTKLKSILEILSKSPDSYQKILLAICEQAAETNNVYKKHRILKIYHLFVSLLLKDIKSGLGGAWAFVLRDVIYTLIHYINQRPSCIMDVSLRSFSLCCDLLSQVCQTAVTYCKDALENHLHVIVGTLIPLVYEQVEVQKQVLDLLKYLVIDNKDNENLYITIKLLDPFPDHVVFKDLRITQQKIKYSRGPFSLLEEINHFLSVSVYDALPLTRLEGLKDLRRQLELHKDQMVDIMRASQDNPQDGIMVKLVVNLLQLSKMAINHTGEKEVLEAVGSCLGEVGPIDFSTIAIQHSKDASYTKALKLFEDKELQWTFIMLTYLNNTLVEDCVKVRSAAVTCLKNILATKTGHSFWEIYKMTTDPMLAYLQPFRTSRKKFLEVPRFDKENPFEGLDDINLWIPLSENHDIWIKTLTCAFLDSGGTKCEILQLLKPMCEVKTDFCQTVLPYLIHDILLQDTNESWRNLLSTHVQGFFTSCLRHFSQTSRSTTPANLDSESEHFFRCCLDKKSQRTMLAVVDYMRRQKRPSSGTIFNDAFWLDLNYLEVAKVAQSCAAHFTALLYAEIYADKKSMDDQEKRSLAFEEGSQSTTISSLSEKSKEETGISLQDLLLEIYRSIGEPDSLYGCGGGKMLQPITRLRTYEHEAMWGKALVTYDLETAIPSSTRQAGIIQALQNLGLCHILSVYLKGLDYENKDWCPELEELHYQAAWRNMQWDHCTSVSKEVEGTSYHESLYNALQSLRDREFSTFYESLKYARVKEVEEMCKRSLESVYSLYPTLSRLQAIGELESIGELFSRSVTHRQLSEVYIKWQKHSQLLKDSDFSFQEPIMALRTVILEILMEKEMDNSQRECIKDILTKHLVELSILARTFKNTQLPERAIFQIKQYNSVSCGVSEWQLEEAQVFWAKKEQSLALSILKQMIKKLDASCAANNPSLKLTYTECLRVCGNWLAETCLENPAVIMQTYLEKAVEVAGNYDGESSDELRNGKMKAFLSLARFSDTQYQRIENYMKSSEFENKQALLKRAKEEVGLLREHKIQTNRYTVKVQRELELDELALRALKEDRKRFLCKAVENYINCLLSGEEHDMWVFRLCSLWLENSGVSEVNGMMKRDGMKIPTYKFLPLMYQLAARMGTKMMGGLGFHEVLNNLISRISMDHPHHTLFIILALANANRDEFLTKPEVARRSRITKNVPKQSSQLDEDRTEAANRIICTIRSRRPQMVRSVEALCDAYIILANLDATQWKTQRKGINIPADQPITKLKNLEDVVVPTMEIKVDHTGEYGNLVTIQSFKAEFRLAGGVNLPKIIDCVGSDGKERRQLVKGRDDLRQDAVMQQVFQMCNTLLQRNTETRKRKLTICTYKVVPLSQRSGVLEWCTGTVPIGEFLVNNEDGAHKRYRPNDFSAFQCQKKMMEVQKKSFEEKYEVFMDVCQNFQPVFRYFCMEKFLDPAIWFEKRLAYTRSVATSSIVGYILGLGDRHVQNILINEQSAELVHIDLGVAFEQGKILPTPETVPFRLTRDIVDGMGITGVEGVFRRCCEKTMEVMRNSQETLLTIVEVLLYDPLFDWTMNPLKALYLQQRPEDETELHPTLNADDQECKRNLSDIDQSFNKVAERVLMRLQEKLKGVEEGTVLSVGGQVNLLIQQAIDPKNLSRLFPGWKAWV
Chain of human PI3Kα (p110α/p85α) (P42336 whole entry): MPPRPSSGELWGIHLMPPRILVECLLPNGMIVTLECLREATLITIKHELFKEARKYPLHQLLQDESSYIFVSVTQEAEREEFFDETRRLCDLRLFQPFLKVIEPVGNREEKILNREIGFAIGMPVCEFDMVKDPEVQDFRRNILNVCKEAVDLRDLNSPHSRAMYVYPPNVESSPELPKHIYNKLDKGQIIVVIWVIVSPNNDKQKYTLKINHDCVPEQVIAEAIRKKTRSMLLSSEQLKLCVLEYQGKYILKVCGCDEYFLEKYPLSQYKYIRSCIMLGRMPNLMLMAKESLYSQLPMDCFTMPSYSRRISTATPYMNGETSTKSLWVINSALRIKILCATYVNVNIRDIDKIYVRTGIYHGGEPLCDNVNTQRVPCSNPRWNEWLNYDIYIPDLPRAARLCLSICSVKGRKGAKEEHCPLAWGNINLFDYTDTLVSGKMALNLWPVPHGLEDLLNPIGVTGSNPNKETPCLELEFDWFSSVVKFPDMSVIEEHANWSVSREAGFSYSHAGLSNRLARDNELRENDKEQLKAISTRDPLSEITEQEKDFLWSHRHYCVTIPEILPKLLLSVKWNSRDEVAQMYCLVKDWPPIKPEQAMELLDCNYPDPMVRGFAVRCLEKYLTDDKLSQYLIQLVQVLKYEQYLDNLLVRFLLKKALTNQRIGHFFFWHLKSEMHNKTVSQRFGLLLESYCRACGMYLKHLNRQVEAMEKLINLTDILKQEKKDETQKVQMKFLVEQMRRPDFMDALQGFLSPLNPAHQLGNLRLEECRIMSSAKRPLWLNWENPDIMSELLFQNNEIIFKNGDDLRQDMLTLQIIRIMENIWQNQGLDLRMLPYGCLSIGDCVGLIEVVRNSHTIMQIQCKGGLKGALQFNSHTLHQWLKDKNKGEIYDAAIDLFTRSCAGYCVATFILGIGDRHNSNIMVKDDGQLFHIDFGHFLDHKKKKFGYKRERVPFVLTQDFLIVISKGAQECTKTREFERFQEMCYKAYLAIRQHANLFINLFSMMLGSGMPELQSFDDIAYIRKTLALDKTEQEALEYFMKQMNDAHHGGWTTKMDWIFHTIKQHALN
Chain of human PI3Kα (p110α/p85α) (P27986 whole entry partner): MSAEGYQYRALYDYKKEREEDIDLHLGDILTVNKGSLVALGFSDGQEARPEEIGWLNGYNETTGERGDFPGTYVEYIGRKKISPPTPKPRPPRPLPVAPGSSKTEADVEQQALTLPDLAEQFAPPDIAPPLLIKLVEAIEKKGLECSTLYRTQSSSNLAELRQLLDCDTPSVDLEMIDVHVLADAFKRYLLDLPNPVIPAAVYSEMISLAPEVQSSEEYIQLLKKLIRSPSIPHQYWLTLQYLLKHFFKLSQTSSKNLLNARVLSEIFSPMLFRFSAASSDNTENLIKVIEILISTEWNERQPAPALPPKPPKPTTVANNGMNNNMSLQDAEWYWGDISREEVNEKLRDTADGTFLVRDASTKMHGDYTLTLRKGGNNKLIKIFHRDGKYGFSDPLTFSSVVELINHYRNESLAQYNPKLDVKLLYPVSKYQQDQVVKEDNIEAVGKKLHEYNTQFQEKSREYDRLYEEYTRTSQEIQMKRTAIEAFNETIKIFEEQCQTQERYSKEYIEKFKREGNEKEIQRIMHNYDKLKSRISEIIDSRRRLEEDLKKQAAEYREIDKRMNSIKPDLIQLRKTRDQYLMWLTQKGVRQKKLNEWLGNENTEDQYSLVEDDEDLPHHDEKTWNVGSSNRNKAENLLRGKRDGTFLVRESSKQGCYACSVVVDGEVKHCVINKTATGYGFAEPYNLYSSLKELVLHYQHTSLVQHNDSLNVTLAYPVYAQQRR

SMILES: Cc1cc(NCCN(C)C)ccc1Nc1cc2c(cn1)n(C)c(=O)n2C1CCCC1 [Compound 56, 1-Cyclopentyl-6-((4-((2-(dimethylamino)ethyl)amino)-2-methylphenyl)amino)-3-methyl-1,3-dihydro-2H-imidazo[4,5-c]pyridin-2-one]
remaining activity at 1 µM [1]: 86%

SMILES: Cn1c(=O)n(C2CCCC2)c2cc(Nc3ccc4ncccc4c3)ncc21 [Compound 63, 1-Cyclopentyl-3-methyl-6-(quinolin-6-ylamino)-1,3-dihydro-2H-imidazo[4,5-c]pyridin-2-one]
IC50 [1]: 0.719 µM

SMILES: Cn1c(=O)n(C2CCCC2)c2cc(Nc3cnc4ccccc4c3)ncc21 [Compound 64, 1-Cyclopentyl-3-methyl-6-(quinolin-3-ylamino)-1,3-dihydro-2H-imidazo[4,5-c]pyridin-2-one]
IC50 [1]: 1.1 µM

SMILES: Cn1c(=O)n(C2CCCC2)c2cc(Nc3cccc4ncccc34)ncc21 [Compound 65, 1-Cyclopentyl-3-methyl-6-(quinolin-5-ylamino)-1,3-dihydro-2H-imidazo[4,5-c]pyridin-2-one]
remaining activity at 1 µM [1]: 93%

SMILES: Cc1cc(O)ccc1Nc1cc2c(cn1)n(C)c(=O)n2C1CCOCC1 [Compound 135, 6-((4-Hydroxy-2-methylphenyl)amino)-3-methyl-1-(tetrahydro-2H-pyran-4-yl)-1,3-dihydro-2H-imidazo[4,5-c]pyridin-2-one]
effect in unirradiated HAP1 cells [2]: little effect
IC50 [2]: > 10 µM
IC50 [3, 9]: 0.0057 µM and 0.0171 µM
IC50 [4]: > 10 µM
S50 [4]: 0.93 µM
radiosensitisation / differential growth inhibition of DNA-PK null HAP1 line [5]: did not radiosensitise; also recorded: did not demonstrate any differential growth inhibition
IC50 [5]: > 10 µM
D1 (radiation dose for 1% surviving fraction) ([8]; 0% O2, compound conc 1 μM): 11.5 Gy
D10 (radiation dose for 10% surviving fraction) ([8]; 0% O2, compound conc 1 μM): 6.37 Gy
SER1 (sensitiser enhancement ratio at 1% surviving fraction) ([8]; 0% O2, compound conc 1 μM): 2.07
SER10 (sensitiser enhancement ratio at 10% surviving fraction) ([8]; 0% O2, compound conc 1 μM): 2.47
Plating efficiency drug/no drug ([8]; 0% O2, compound conc 1 μM): 1.12
D1 (radiation dose for 1% surviving fraction) ([8]; 20% O2, compound conc 0.33 μM): 1.37 Gy
D10 (radiation dose for 10% surviving fraction) ([8]; 20% O2, compound conc 0.33 μM): 4.85 Gy
SER1 (sensitiser enhancement ratio at 1% surviving fraction) ([8]; 20% O2, compound conc 0.33 μM): 1.20
SER10 (sensitiser enhancement ratio at 10% surviving fraction) ([8]; 20% O2, compound conc 0.33 μM): 8.09
Plating efficiency drug/no drug ([8]; 20% O2, compound conc 0.33 μM): 0.77
D10 (radiation dose for 10% surviving fraction) ([8]; 20% O2, compound conc 1 μM): 3.15 Gy and 2.88 Gy
SER1 (sensitiser enhancement ratio at 1% surviving fraction) ([8]; 20% O2, compound conc 1 μM): 1.5 and 1.59
Plating efficiency drug/no drug ([8]; 20% O2, compound conc 1 μM): 0.59 and 0.89
D1 (radiation dose for 1% surviving fraction) ([8]; 20% O2, compound conc 3 μM): 2.91 Gy
D10 (radiation dose for 10% surviving fraction) ([8]; 20% O2, compound conc 3 μM): 2.28 Gy
SER1 (sensitiser enhancement ratio at 1% surviving fraction) ([8]; 20% O2, compound conc 3 μM): 1.92
SER10 (sensitiser enhancement ratio at 10% surviving fraction) ([8]; 20% O2, compound conc 3 μM): 5.06
Plating efficiency drug/no drug ([8]; 20% O2, compound conc 3 μM): 0.63
radiosensitisation, clonogenic survival endpoint ([8]; UT-SCC-54C, FIG. 8 and Table 18): concentration-dependent increases in radiosensitisation
IC50 [6]: 3.22 µM and 5.24 µM

SMILES: Cn1c(=O)n(-c2ccc(C(C)(C)C#N)cc2)c2cc(Nc3ccc4ncccc4c3)ncc21 [Compound 213, 2-Methyl-2-(4-(3-methyl-2-oxo-6-(quinolin-6-ylamino)-2,3-dihydro-1H-imidazo[4,5-c]pyridin-1-yl)phenyl)propanenitrile]
IC50 [3, 9]: 0.00123 µM
IC50 [3, 11]: 0.00123 µM
remaining activity at 1 µM [1]: 68%
IC50 [4]: > 10 µM
S50 [4]: 2.22 µM
IC50 [6]: 1.73 µM

SMILES: COc1ccc(Nc2cc3c(cn2)n(C)c(=O)n3C2CCOCC2)cc1 [Compound 215, 6-((4-Methoxyphenyl)amino)-3-methyl-1-(tetrahydro-2H-pyran-4-yl)-1,3-dihydro-2H-imidazo[4,5-c]pyridin-2-one]
IC50 [3, 9]: 0.051 µM
IC50 [3, 11]: 0.051 µM
remaining activity at 1 µM [1]: 90%
IC50 [4]: > 10 µM
S50 [4]: 7.5 µM
IC50 [7, 12]: 12300 nM
IC50 [7, 10]: 12300 nM
IC50 [6]: 12.5 µM

Continued, in another order:

remaining activity at 1 µM [1]: 92%
SMILES: Cn1c(=O)n(C2CCCC2)c2cc(Nc3cccc4cnccc34)ncc21 [Compound 66, 1-Cyclopentyl-6-(isoquinolin-5-ylamino)-3-methyl-1,3-dihydro-2H-imidazo[4,5-c]pyridin-2-one]

remaining activity at 1 µM [1]: 88%
SMILES: Cc1cc(Nc2cc3c(cn2)n(C)c(=O)n3C2CCCC2)c2ccccc2n1 [Compound 67, 1-Cyclopentyl-3-methyl-6-((2-methylquinolin-4-yl)amino)-1,3-dihydro-2H-imidazo[4,5-c]pyridin-2-one]

IC50 [1]: 0.94 µM
SMILES: Cn1c(=O)n(C2CCCC2)c2cc(Nc3ccc4nccnc4c3)ncc21 [Compound 68, 1-Cyclopentyl-3-methyl-6-(quinoxalin-6-ylamino)-1,3-dihydro-2H-imidazo[4,5-c]pyridin-2-one]

IC50 [1]: 0.275 µM
SMILES: Cn1c(=O)n(C2CCCC2)c2cc(Nc3ccccn3)ncc21 [Compound 73, 1-Cyclopentyl-3-methyl-6-(pyridin-2-ylamino)-1,3-dihydro-2H-imidazo[4,5-c]pyridin-2-one]

IC50 [3, 9]: 0.0049 µM
IC50 [6]: 5.46 µM
SMILES: Cc1cc(Cl)ccc1Nc1cc2c(cn1)n(C)c(=O)n2C1CCOC1 (centres unmarked) [Compound 116, 6-((4-Chloro-2-methylphenyl)amino)-3-methyl-1-(tetrahydrofuran-3-yl)-1,3-dihydro-2H-imidazo[4,5-c]pyridin-2-one]
IC50 [2]: > 10 µM
IC50 [4]: > 10 µM
S50 [4]: 0.06 µM
IC50 [5]: > 10 µM

IC50 [3, 9]: 0.00906 µM
IC50 [7, 10]: 12600 nM
IC50 [6]: 4.23 µM
SMILES: COc1cc(C)c(Nc2cc3c(cn2)n(C)c(=O)n3C2CCOCC2)cn1 [Compound 126, 6-((6-Methoxy-4-methylpyridin-3-yl)amino)-3-methyl-1-(tetrahydro-2H-pyran-4-yl)-1,3-dihydro-2H-imidazo[4,5-c]pyridin-2-one]
effect in unirradiated HAP1 cells [2]: little effect
radiosensitisation / differential growth inhibition of HAP1 cells [2]: concentration-dependent radiosensitisation
IC50 [2]: > 10 µM
IC50 [4]: > 10 µM
S50 [4]: 0.32 µM
radiosensitisation / differential growth inhibition of DNA-PK null HAP1 line [5]: did not radiosensitise
IC50 [5]: > 10 µM

IC50 [3, 9]: 0.00711 µM
IC50 [3, 11]: 0.00711 µM
IC50 [1]: 2.56 µM
IC50 [7, 12]: 5420 nM
IC50 [7, 10]: 5420 nM
IC50 [6]: 3.96 µM
SMILES: Cc1nc2cc(C)c(Nc3cc4c(cn3)n(C)c(=O)n4C3CCOCC3)cc2s1 [Compound 127, 6-((2,5-Dimethylbenzo[d]thiazol-6-yl)amino)-3-methyl-1-(tetrahydro-2H-pyran-4-yl)-1,3-dihydro-2H-imidazo[4,5-c]pyridin-2-one]
effect in unirradiated HAP1 cells [2]: little effect
radiosensitisation / differential growth inhibition of HAP1 cells [2]: concentration-dependent radiosensitisation
IC50 [2]: > 10 µM
IC50 [4]: > 10 µM
S50 [4]: 0.22 µM
radiosensitisation / differential growth inhibition of DNA-PK null HAP1 line [5]: did not radiosensitise
IC50 [5]: > 10 µM

IC50 [3, 9]: 0.0126 µM
IC50 [7, 10]: 60200 nM
IC50 [6]: 5.57 µM
SMILES: Cc1nc2cc(C)c(Nc3cc4c(cn3)n(C)c(=O)n4C3CCOCC3)cc2o1 [Compound 132, 6-((2,5-Dimethylbenzo[d]oxazol-6-yl)amino)-3-methyl-1-(tetrahydro-2H-pyran-4-yl)-1,3-dihydro-2H-imidazo[4,5-c]pyridin-2-one]
effect in unirradiated HAP1 cells [2]: little effect
radiosensitisation / differential growth inhibition of HAP1 cells [2]: concentration-dependent radiosensitisation
IC50 [4]: > 10 µM
S50 [4]: 0.49 µM
radiosensitisation / differential growth inhibition of DNA-PK null HAP1 line [5]: did not radiosensitise
